The test has as its system MDA-MB-231 mammary cancer. As to the kind of experiment: Therapeutic test in mice bearing MDA-MB-231 mammary cancer (tumor volume). In kind it is in vivo, nude mice. As to conditions: tail intravenous injection once every 4 days; treatment duration 36 days.

Protocol: 0.2 ml of MDA-MB-231 mammary cancer cells (2×10^5) was subcutaneously injected to the axillary region near the forelimb of nude mice, and 2 weeks later, the tumor model was successfully established.
In the therapeutic test, corresponding normal saline, free mitoxantrone, drug-loaded mPEG-PLGA-PLL nanoparticles and drug-loaded mPEG-PLGA-PLL-RGD nanoparticles were given once every 4 days through tail intravenous injection, the tumor volume was subsequently measured, and the treatment duration was 36 days.

For the molecule `O=C1c2c(O)ccc(O)c2C(=O)c2c(NCCNCCO)ccc(NCCNCCO)c21` [free mitoxantrone chloride, mitoxantrone chloride], the tumor inhibition rate was 10.32%.

These data come from patent US20130052134A1, “PEG-PLGA-PLL POLYMER AND METHOD FOR PREPARING AND USING THE SAME AS THE DRUG AND GENE CARRIER” (Shanghai Cancer Institute, priority 2009, published 2013).
